Consider 1 compound from patent publication US6133313A, “Insecticidal avocadofurans and triolein” (The Regents of the University of California, priority 1998, dated 2000).

What is called mortality is the share of the test organisms that died.

For the assay, the system named is S. exigua larvae. Description: growth inhibition and mortality of synthetic avocadofurans and triolein in diet bioassay. The assay is classed as in vivo, Spodoptera exigua. The procedure: S. exigua larvae were used in all experiments. Larvae were reared on artificial diet modified from U.S.D.A. Agric. Res. Serv., Prod. Res. Rep., 1208:1 (1969), and maintained at 28+2° C., 14:10; light:dark (L:D) photoperiod.
The colony was collected from Orange Co., Calif. and had new genetic material added within 12 months prior to the study. The age of the cohorts tested was standardized by using neonates within 12 hours of eclosion. All bioassays were maintained at 28+2° C. 75% relative humidity (RH), and at 14:10 (L:D) photoperiod with fluorescent lighting.
The insecticidal activity of the fractions was tested with artificial diet bioassays. Treated diets were prepared by transferring 750 μl of acetone solutions of each fraction (equivalent to 300 mg crude idioblast cell oil) into 50-ml polypropylene centrifuge tubes (Fisher, Pittsburgh Pa.), evaporating the acetone, adding 2 ml of 0.1% Tween-80 solution (Fisher), homogenizing with an ultrasonic homogenizer (Co le-Parmer, Chicago Ill.), and adding prepared diet to produce a final weight of 15 g containing the equivalent of 2% idioblast oil. The mixture was vortexed for 3 mm.
Control diet was prepared by mixing 2 ml of Tween solution and 13 g of artificial diet to produce a final weight of 15 g. Control and treated diets were poured into 24-well (15.9 mm diameter and 15.9 mm depth) bioassay trays (C-D International Inc., Pitman N.J.). One neonate was added per well, and trays were placed in an incubator under the previously described conditions. Twenty-four neonates were tested for each fraction and control. Mortality and larval weights were recorded after 7 days.
The effect of the synthetically produced avocado furan compounds (>95% purity) and commercially available triolein (Sigma, St. Louis, Mo.) were tested on larval growth and mortality of S exigua. Treated and control diet were prepared as previously described.
Six different compound concentrations, chosen on the basis of studies with the oil fractions, were evaluated for both 2-(pentadecyl)furan and 2-(heptadecyl)furan: 0 (control), 600, 750, 900, 1050, and 1200 μg/g. Also, six concentrations of triolein (subfraction 1-1-12) were tested: 0 (control), 7000, 8000, 9000, 10000, and 11000 μg/g.
Twenty-four neonates were used per treatment. Bioassays were conducted as described in Example 4, and replicated 4 times for each concentration (i.e., a total of 96 larvae were tested for each concentration). Larval weight, instar, and mortality were recorded after 7 days […].
EC (effective concentration) values were calculated by subtracting the mean larval weight for each treatment from the mean weight of the controls, and dividing by the mean weight of the controls. LC (lethal concentration) values were obtained using probit analysis as described in Probit Analysis (1971) Cambridge University Press, Cambridge, UK. GI (growth index) and RGI (relative growth index) values were calculated as described in J. Chem. Ecol., 19:1109 (1993), but using an imax of 3 (the stage attained by most control larvae after 7 d). Statistical comparisons were conducted using SuperAnova Abacus Concept Inc., Berkeley, Calif. (1989).

`CCCCC/C=C\C/C=C\CCCCCCCc1ccco1` [2-(8Z,11Z-heptadecadienyl)furan]: the “inhibition of S. exigua growth compared to control larvae” value (1600 μg/g) was 54.51%. Moreover, for the setting “Spodoptera exigua, feed or water, 1600 μg/g”, the mortality at 1600 µg/g was below 5%. The “active concentration relative to the saturated compound (4)” value (in vivo) was “twice as high as the saturated compound (4)”. Further, the “comparative toxicity and growth inhibition” value (in words) is reported as “of much lower toxicity than 2-(heptadecyl)furan (4)”. For the setting “lowest active concentration, in diet”, the “concentration at which S. exigua growth is inhibited / compound active” value was at least 1600 µg/g.
